Source: article PMC8752738, “A propolis-derived small molecule ameliorates metabolic syndrome in obese mice by targeting the CREB/CRTC2 transcriptional complex” (Nature Communications, 2022)
Where “and” joins values, the source holds several entries; their conditions need not be identical. Equal entries are not always repeated.

Tests used:
Fasting blood glucose = assay type: in vivo, mouse; parameters: Blood glucose of CRTC2KO / blood glucose in CRTC2KO, mean: unit not given here; conditions: for blood glucose in CRTC2KO, mean / Blood glucose of CRTC2KO: Figure 9e, 20mg/kg; for blood glucose in CRTC2KO, mean: N 6
[1] = biological target: T1, MYC-CREB-ZIP / FLAG-CRTC2 interaction (Homo sapiens, UniProt P16220); experiment: Immunoprecipitation of FLAG-CRTC2-WT with MYC-CREB-ZIP fragment; assay type: biochemical; conditions: for Relative FLAG/MYC in MYC-IP fraction: Fig 3c replicates, FSK +
T1 construct: expressed in transfected cells; host or cells: HEK293
T1 sequence (P16220 269-327 limits assumed): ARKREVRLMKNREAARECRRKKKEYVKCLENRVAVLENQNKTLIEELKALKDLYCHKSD
Excerpt: Fig. 3 APC inhibits CRTC2 interacting with CREB-ZIP and reduces acetyltransferase activity of CBP by binding with CREB protein directly. a Isothermal titration calorimetry (ITC) of HIS-CREB protein solution titrated into APC solution. The bottom solid line represents a nonlinear least-squares fitted by a single-site binding model. One of two independent experiments is shown here. b IC50 of APC inhibitory activity detected by CREB–CRTC2 two-hybrid assay in HEK293T cells (n = 3 per treatment, data are represented as mean ± SEM). One of three independent experiments is shown here. c Immunoprecipitation analysis of FLAG-CRTC2-WT recovered by anti-MYC antibody from HEK293 cells co-transfected with plasmids for a Myc-Creb-Zip fragment and the FLAG-Crtc2-Wt, stimulated by FSK (10 nM) for 2-h before harvest. APC (1–10 μM) was included in immunoprecipitation mixtures as indicated. Top represents one of three independent experiments, and the relative gray density of FLAG normalized to MYC in MYC-IP- factions is shown as a bar graph (bottom, n = 3). Data are represented as mean ± SEM; P values were determined by one-way ANOVA followed Dunnett’s multiple comparisons test. d Immunoblotting analysis of the acetyltransferase activity of CBP. The protein levels of H3K27ac and total Histone H3 were determined using specific antibodies from HEK293 cell lysate overexpressing HA-Cbp plasmid. Pretreatment with trichostatin (TSA, 0.5 μM) for 1 h prior to incubation with APC (2, 10 μM) for another 2-h. The top represents one of three independent experiments, and the relative gray density of H3K27ac normalized to total Histone H3 in cell lysate is shown as a bar graph (bottom, n = 3). Data are represented as mean ± SEM; P values were determined by one-way ANOVA followed Dunnett’s multiple comparisons test. ns, P > 0.05; *P < 0.05; **P < 0.01. Sources data for this figure are provided as source data file.

[2] = biological target: T2, endogenous CRTC2 / CBP interaction (Mus musculus, UniProt P45481+Q3U182); experiment: Co-immunoprecipitation by anti-CRTC2 antibody, primary hepatocytes: CBP; assay type: cell-based
T2 construct: endogenous in cells; host or cells: mouse primary hepatocytes
Procedure: Fig. 2 APC blocks interaction between CREB and CRTC2. a Analysis of GST-CREB immunoprecipitated with overexpressed FLAG-CRTC2 from the lysates of HEK293T cells. APC (10 μM) was added to the culture media for 1 h and the following IP mixture. The relative gray density of FLAG in GST-pull-down fraction is shown as a bar graph (bottom). One of three independent experiments is presented (top, n = 3). Data are represented as mean ± SEM); P values were determined by one-way ANOVA followed Dunnett’s multiple comparisons test. b Analysis of HA-CRTC2 immunoprecipitated with endogenous CREB from primary hepatocyte lysates. […] Data are represented as mean ± SEM; P values were determined by one-way ANOVA followed Dunnett’s multiple comparisons test. c Immunoblotting analysis of endogenous CREB, CRTC2, and CBP interaction by an anti-CRTC2 antibody from the lysate of primary hepatocytes. […] Data are represented as mean ± SEM; P values were determined by two-way ANOVA followed Bonferroni’s multiple comparisons test. d Immunoblotting analysis of protein GST-CREB recovered HIS-CRTC2-S171A proteins purified from E. coli. […] Data are represented as mean ± SEM; P values were determined by one-way ANOVA followed Dunnett’s multiple comparisons test (compared with APC = 0). […]

T2 sequence (Q3U182 2-692 limits assumed): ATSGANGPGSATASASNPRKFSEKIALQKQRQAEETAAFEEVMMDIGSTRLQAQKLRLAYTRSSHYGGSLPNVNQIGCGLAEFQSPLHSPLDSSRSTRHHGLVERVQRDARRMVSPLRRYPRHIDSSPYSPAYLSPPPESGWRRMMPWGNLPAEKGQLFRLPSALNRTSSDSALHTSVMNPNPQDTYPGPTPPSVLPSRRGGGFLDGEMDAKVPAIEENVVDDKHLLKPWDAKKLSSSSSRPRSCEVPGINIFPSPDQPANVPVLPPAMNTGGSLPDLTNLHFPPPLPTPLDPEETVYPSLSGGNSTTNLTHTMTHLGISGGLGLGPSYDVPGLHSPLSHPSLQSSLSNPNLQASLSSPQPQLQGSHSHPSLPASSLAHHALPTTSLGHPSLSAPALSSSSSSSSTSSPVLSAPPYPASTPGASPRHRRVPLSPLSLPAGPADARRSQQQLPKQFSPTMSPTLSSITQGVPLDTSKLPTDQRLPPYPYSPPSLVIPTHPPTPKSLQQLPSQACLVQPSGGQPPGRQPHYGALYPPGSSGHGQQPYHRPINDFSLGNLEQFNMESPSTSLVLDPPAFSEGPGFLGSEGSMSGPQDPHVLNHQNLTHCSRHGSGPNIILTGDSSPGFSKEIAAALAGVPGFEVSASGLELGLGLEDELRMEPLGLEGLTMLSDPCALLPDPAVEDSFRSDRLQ
T2 sequence (P45481 2-2441 limits assumed): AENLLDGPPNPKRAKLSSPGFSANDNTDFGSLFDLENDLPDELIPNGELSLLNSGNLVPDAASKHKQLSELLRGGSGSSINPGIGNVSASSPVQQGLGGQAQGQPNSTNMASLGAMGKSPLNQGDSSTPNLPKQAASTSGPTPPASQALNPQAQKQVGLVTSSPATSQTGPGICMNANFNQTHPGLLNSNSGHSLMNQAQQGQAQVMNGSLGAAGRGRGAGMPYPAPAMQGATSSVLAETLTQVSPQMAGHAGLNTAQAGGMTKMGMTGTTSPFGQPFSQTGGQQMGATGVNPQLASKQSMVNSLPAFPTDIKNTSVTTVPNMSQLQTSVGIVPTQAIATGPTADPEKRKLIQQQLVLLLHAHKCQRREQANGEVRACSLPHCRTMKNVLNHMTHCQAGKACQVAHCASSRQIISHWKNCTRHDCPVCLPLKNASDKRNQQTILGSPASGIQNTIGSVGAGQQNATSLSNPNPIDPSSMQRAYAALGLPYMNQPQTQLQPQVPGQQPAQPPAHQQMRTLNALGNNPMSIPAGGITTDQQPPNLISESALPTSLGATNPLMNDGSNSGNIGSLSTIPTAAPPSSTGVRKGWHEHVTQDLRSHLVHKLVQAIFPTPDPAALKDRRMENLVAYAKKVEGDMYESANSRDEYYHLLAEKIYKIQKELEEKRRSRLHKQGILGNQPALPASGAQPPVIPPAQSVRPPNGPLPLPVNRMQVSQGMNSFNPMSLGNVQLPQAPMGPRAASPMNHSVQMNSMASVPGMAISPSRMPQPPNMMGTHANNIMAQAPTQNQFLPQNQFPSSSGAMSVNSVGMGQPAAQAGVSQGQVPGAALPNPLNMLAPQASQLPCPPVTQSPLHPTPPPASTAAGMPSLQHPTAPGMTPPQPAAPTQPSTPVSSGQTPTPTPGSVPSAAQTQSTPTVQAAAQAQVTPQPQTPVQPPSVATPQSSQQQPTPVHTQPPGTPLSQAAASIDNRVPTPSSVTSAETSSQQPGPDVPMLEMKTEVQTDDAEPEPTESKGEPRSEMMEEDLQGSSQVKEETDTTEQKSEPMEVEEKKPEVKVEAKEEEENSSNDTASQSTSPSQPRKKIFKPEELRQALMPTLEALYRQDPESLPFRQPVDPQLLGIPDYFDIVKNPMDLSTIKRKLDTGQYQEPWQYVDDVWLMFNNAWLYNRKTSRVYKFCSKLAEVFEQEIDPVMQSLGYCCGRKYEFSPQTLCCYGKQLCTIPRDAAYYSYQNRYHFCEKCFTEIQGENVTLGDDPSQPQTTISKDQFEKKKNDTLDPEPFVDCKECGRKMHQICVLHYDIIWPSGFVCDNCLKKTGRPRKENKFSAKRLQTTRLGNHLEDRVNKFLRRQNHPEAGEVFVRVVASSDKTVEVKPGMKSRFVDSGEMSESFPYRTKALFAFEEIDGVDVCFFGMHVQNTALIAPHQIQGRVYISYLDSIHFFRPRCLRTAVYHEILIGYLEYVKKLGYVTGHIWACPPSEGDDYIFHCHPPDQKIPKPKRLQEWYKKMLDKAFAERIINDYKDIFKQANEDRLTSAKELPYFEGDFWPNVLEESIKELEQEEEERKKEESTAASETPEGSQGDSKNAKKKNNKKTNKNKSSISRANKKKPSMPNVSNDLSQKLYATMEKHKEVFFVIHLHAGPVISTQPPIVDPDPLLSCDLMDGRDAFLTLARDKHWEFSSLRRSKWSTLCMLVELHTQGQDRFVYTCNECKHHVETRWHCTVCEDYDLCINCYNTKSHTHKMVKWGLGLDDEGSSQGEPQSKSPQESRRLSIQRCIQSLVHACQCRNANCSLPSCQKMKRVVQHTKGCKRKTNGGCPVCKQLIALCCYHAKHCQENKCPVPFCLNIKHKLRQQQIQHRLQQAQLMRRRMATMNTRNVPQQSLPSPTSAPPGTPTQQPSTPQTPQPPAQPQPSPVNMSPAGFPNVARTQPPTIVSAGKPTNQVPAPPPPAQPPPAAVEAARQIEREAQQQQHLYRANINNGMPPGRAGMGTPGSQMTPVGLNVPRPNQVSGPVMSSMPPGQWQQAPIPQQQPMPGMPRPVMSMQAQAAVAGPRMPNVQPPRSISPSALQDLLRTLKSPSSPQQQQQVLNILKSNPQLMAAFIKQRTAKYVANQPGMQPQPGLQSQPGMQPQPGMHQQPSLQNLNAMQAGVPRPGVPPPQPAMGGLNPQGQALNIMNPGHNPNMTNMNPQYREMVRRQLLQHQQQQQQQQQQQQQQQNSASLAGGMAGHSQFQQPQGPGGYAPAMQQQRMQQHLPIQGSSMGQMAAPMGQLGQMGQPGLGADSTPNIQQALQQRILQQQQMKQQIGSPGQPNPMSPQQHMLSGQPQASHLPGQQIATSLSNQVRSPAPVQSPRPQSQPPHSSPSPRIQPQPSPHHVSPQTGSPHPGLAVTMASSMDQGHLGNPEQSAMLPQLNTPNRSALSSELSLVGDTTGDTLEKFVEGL

CC(C)=CCc1cc(C=CC(=O)O)cc(CC=C(C)C)c1O [APC, 3,5-diprenyl-4-hydroxycinnamic acid]
fasting blood glucose levels (Fasting blood glucose; DIO and db/db mice, i.p. 20 mg/kg): remarkably decreased | blood glucose in CRTC2KO, mean (Fasting blood glucose; CRTC2KO mice, group mean): 3.317 | Blood glucose of CRTC2KO (Fasting blood glucose; CRTC2KO mice, single animals): 3.3 (2×) and 3.8 and 2.6 and 3.1 | blood glucose in CRTC2KO, mean (Fasting blood glucose; WT mice, group mean): 3.65 | Blood glucose of CRTC2KO (Fasting blood glucose; WT mice, single animals): 2.1 and 3.3 and 3.2 (3×) and 4 | FBG in db/db, mean (Fasting blood glucose; Figure 9f, db/db, group mean, n 5): 19.96 mM | Fasting blood glucose (Fasting blood glucose; Figure 9f, db/db, single animals): 13 mM and 22 mM and 26.3 mM and 18.9 mM and 19.6 mM | Fasting blood glucose, mean of column B (Fasting blood glucose; Figure 8d, group mean, n=6, VEH mean 137.4): 91.6 mg/dL | Fasting blood glucose (Fasting blood glucose; Figure 8d, individual mice): 79.2 mg/dL and 84.6 mg/dL and 110.4 mg/dL and 95.4 mg/dL and 102.6 mg/dL and 77.4 mg/dL | fasting blood glucose levels (Fasting blood glucose; db/db mice, one oral delivery 5 mg/kg): little effect | fasting blood glucose in db/db mice, mean (Fasting blood glucose; group mean, n=6): 109.4 mg/dL | effect on fasting blood glucose in Crtc2KO mice (Fasting blood glucose; high-fat diet, oral 20 mg/kg daily, 3 days): abolished | fasting blood glucose in db/db mice (Fasting blood glucose; individual mouse): 141.4 mg/dL and 95.6 mg/dL and 108 mg/dL and 121.6 mg/dL and 83.4 mg/dL and 106.2 mg/dL | FLAG-CRTC2 binding with MYC-CREB-ZIP domain ([1]; APC 1–10 μM): inhibited | Relative FLAG/MYC in MYC-IP fraction ([1]; APC 1 uM): 3.874 and 3.872 and 3.786 | Relative FLAG/MYC in MYC-IP fraction ([1]; APC 5 uM): 3.592 and 3.454 and 3.26 | Relative FLAG/MYC in MYC-IP fraction ([1]; APC 10 uM): 2.4146 and 2.393 and 2.225 | CBP/CRTC2 band gray signal, CRTC2-COIP fraction ([2]; Fig 2c replicates, APC+ (10 μM)): 0.6163 and 0.6152 and 0.6031 | interaction between endogenous CRTC2 and CBP ([2]; primary hepatocytes, APC 10 μM): little effect
